Among the data in patent US20190127366A1 (LifeSci Pharmaceuticals, Inc., priority 2015, published 2019) are IC50 values, retold here.

Broadly, the IC50 is the concentration that gives 50% inhibition.

The target of this assay is T1, human complement factor D (Homo sapiens, UniProt P00746).
T1 construct: purchased R&D Systems 1824-SE
T1 sequence (P00746 26-253): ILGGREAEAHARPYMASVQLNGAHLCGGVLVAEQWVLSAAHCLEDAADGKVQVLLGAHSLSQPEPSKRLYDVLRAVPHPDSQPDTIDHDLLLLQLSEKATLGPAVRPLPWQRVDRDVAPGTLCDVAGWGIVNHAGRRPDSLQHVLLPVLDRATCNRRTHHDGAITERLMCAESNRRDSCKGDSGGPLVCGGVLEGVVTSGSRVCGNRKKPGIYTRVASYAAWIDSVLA
The assay can be described thus: In vitro enzyme inhibition (Z-Lys-SBzl/DTNB absorbance assay). The assay is classed as biochemical. The settings on record: Complement Factor D (R&D Systems), substrate Z-Lys-SBzl, A405 nm; read-out: CFD IC50. In short, it runs like this: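 Factor D (6.25 ng/μL before addition) preincubated 5 min RT with compound (8 points from 50 μM, 6-fold, 0.5% DMSO final) in 50 mM Tris/HCl pH 7.5, 1 M NaCl, then Z-Lys-SBzl/DTNB added (200 μM each before addition). A405 read kinetically every 30 s for 60 min; IC50 from variable-slope fit, controls with and without enzyme.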
Consider `NC(=O)Cc1ccc2c(c1)c(C(N)=O)nn2CC(=O)N1[C@@H]2CC[C@@H](C2)[C@H]1C(=O)NCc1cccc(Cl)c1F` [Example 133, 5-(2-amino-2-oxoethyl)-1-(2-((1R,3S,4S)-3-((3-chloro-2-fluorobenzyl)carbamoyl)-2-azabicyclo[2.2.1]heptan-2-yl)-2-oxoethyl)-1H-indazole-3-carboxamide], for which the IC50 lay within 1 to 10 µM.

For the molecule `CC(C)=C(F)C(C)NC(=O)[C@@H]1[C@H]2CC[C@H](C2)N1C(=O)Cn1nc(C(N)=O)c2ccccc21` (stereo partly drawn) [Example 135, 1-(2-((1R,3S,4S)-3-((3-fluoro-4-methylpent-3-en-2-yl)carbamoyl)-2-azabicyclo[2.2.1]heptan-2-yl)-2-oxoethyl)-1H-indazole-3-carboxamide], the IC50 was more than 10 µM.

As for `COC(=O)C(NC(=O)[C@@H]1[C@H]2CC[C@H](C2)N1C(=O)Cn1nc(C(N)=O)c2ccccc21)c1cccc(Cl)c1F` (stereo partly drawn) [Example 136, methyl 2-((1R,3S,4S)-2-(2-(3-carbamoyl-1H-indazol-1-yl)acetyl)-2-azabicyclo[2.2.1]heptane-3-carboxamido)-2-(3-chloro-2-fluorophenyl)acetate], the IC50 fell in the range of 1 to 10 µM.

Take `NC(=O)c1nn(CC(=O)N2[C@@H]3CC[C@@H](C3)[C@H]2C(=O)NC(C(=O)O)c2cccc(Cl)c2F)c2ccccc12` (stereo partly drawn) [Example 137, 2-((1R,3S,4S)-2-(2-(3-carbamoyl-1H-indazol-1-yl)acetyl)-2-azabicyclo[2.2.1]heptane-3-carboxamido)-2-(3-chloro-2-fluorophenyl)acetic acid]: the IC50 was 1 to 10 µM.

As to `NC(=O)c1nn(CC(=O)N2[C@@H]3CC[C@@H](C3)[C@H]2C(=O)NC(CO)c2cccc(Cl)c2F)c2ccccc12` (stereo partly drawn) [Example 138, 1-(2-((1R,3S,4S)-3-((1-(3-chloro-2-fluorophenyl)-2-hydroxyethyl)carbamoyl)-2-azabicyclo[2.2.1]heptan-2-yl)-2-oxoethyl)-1H-indazole-3-carboxamide], the IC50 was in the range of 1 to 10 µM.

As to `NCC(NC(=O)[C@@H]1[C@H]2CC[C@H](C2)N1C(=O)Cn1nc(C(N)=O)c2ccccc21)c1cccc(Cl)c1F` (stereo partly drawn) [Example 140, 1-(2-((1R,3S,4S)-3-((2-amino-1-(3-chloro-2-fluorophenyl)ethyl)carbamoyl)-2-azabicyclo[2.2.1]heptan-2-yl)-2-oxoethyl)-1H-indazole-3-carboxamide], the IC50 is more than 10 µM.

Consider `N#CC(NC(=O)[C@@H]1[C@H]2CC[C@H](C2)N1C(=O)Cn1nc(C(N)=O)c2ccccc21)c1cccc(Cl)c1F` (stereo partly drawn) [Example 141, 1-(2-((1R,3S,4S)-3-(((3-chloro-2-fluorophenyl)(cyano)methyl)carbamoyl)-2-azabicyclo[2.2.1]heptan-2-yl)-2-oxoethyl)-1H-indazole-3-carboxamide], for which the IC50 lay in the range of 0.1 to 1 µM.

As for `COC(=O)CC(NC(=O)[C@@H]1[C@H]2CC[C@H](C2)N1C(=O)Cn1nc(C(N)=O)c2ccccc21)c1cccc(Cl)c1F` (stereo partly drawn) [Example 142, methyl 3-((1R,3S,4S)-2-(2-(3-carbamoyl-1H-indazol-1-yl)acetyl)-2-azabicyclo[2.2.1]heptane-3-carboxamido)-3-(3-chloro-2-fluorophenyl)propanoate], the IC50 lay in the range of 1 to 10 µM.

As for `NC(=O)c1nn(CC(=O)N2[C@@H]3CC[C@@H](C3)[C@H]2C(=O)NC(CC(=O)O)c2cccc(Cl)c2F)c2ccccc12` (stereo partly drawn) [Example 143, 3-((1R,3S,4S)-2-(2-(3-carbamoyl-1H-indazol-1-yl)acetyl)-2-azabicyclo[2.2.1]heptane-3-carboxamido)-3-(3-chloro-2-fluorophenyl)propanoic acid], the IC50 fell in the range of 1 to 10 µM.

Take `NC(=O)CC(NC(=O)[C@@H]1[C@H]2CC[C@H](C2)N1C(=O)Cn1nc(C(N)=O)c2ccccc21)c1cccc(Cl)c1F` (stereo partly drawn) [Example 144, 1-(2-((1R,3S,4S)-3-((3-amino-1-(3-chloro-2-fluorophenyl)-3-oxopropyl)carbamoyl)-2-azabicyclo[2.2.1]heptan-2-yl)-2-oxoethyl)-1H-indazole-3-carboxamide]: the IC50 was in the range of 1 to 10 µM.
